Measured values reported in patent US10597388B2, “Pyridazinone herbicides” (FMC CORPORATION, priority 2014, dated 2020).

Assays:
Assay in all cases: Test D controlled growth environment herbicide test, pre- and postemergence
Assay type in all cases: in vivo
[1] = test system: bromegrass, downy (downy bromegrass, Bromus tectorum)
Method in brief: (§1)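 Rating is visual, 0–100 scale (100 = complete control), made against untreated plants 14–21 d after treatment in controlled growth conditions. Postemergence sprays went onto 1- to 4-leaf plants in peat medium; preemergence sprays onto silt loam after sowing; formulation included a surfactant.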

[2] = test system: bluegrass (annual bluegrass, Poa annua)
Method in brief: as §1

[3] = test system: field violet (Viola arvensis)
Method in brief: as §1

[4] = test system: oilseed rape (Brassica napus)
Method in brief: as §1

[5] = test system: buckwheat, wild (wild buckwheat, Polygonum convolvulus)
Method in brief: as §1

[6] = test system: Russian thistle (Salsola kali)
Method in brief: as §1

[7] = test system: radish, wild (wild radish, Raphanus raphanistrum)
Method in brief: as §1

[8] = test system: oat, wild (wild oat, Avena fatua)
Method in brief: as §1

[9] = test system: canarygrass (Phalaris minor)
Method in brief: as §1

[10] = test system: chamomile (scentless chamomile, Matricaria inodora)
Method in brief: as §1

[11] = test system: mustard, wild (wild mustard, Sinapis arvensis)
Method in brief: as §1

[12] = test system: field poppy (Papaver rhoeas)
Method in brief: as §1

[13] = test system: wheat, spring (spring wheat, Triticum aestivum)
Method in brief: as §1

[14] = Postemergence, 31 g ai/ha, scale 0 to 100 (0 no effect, 100 complete control)
[15] = Postemergence, 125 g ai/ha, visual rating on scale 0 (no effect) to 100 (complete control), 14 to 21 d
[16] = Postemergence, 250 g ai/ha, scale 0 to 100 (0 no effect, 100 complete control)
[17] = Preemergence, 62 g ai/ha, scale 0 to 100 (0 no effect, 100 complete control)
[18] = Preemergence, 125 g ai/ha, scale 0 to 100 (0 no effect, 100 complete control)
[19] = Preemergence, 250 g ai/ha, scale 0 to 100 (0 no effect, 100 complete control)
[20] = postemergence, 62 g ai/ha, scale 0 to 100, 0 no effect, 100 complete control

COc1nn(C)c(=O)c(-c2c(C)ccc3ccccc23)c1O [Compound 54]
65: Plant response rating, Canarygrass [9, 15]
40: Plant response rating, Bromegrass, Downy [1, 19]
100: Plant response rating, Oilseed Rape [4, 15] | Plant response rating, Oilseed Rape [4, 16] | Plant response rating, Oilseed Rape [4, 19] | Buckwheat, Wild plant response rating [5, 14] | Plant response rating, Buckwheat, Wild [5, 15] | Plant response rating, Buckwheat, Wild [5, 16] | Plant response rating, Buckwheat, Wild [5, 20] | Plant response rating, Russian Thistle [6, 16] | Plant response rating, Radish, Wild [7, 15] | Plant response rating, Radish, Wild [7, 16] | Plant response rating, Radish, Wild [7, 17] | Plant response rating, Radish, Wild [7, 18] | Plant response rating, Radish, Wild [7, 19] | Plant response rating, Radish, Wild [7, 20] | Plant response rating, Chamomile [10, 15] | Plant response rating, Chamomile [10, 16] | Plant response rating, Chamomile [10, 20] | Mustard, Wild plant response rating [11, 14] | Plant response rating, Mustard, Wild [11, 15] | Plant response rating, Mustard, Wild [11, 16] | Plant response rating, Mustard, Wild [11, 17] | Plant response rating, Mustard, Wild [11, 18] | Plant response rating, Mustard, Wild [11, 19] | Plant response rating, Mustard, Wild [11, 20] | Plant response rating, Field Poppy [12, 15] | Plant response rating, Field Poppy [12, 16] | Plant response rating, Field Poppy [12, 18] | Plant response rating, Field Poppy [12, 19] | Plant response rating, Field Poppy [12, 20]
70: Plant response rating, Field Violet [3, 18] | Plant response rating, Buckwheat, Wild [5, 18] | Field Poppy plant response rating [12, 14]
10: Bromegrass, Downy plant response rating [1, 14] | Bluegrass plant response rating [2, 14] | Plant response rating, Bluegrass [2, 17]
75: Plant response rating, Bromegrass, Downy [1, 16] | Plant response rating, Field Violet [3, 20] | Oilseed Rape plant response rating [4, 14] | Oat, Wild plant response rating [8, 14] | Plant response rating (scale of 0 to 100), Oat, Wild ([8]; Preemergence, 31 g ai/ha) | Plant response rating, Oat, Wild [8, 17] | Plant response rating, Canarygrass [9, 16]
90: Plant response rating, Field Violet [3, 16] | Plant response rating, Russian Thistle [6, 15] | Plant response rating, Oat, Wild [8, 15] | Plant response rating, Oat, Wild [8, 16] | Plant response rating, Canarygrass [9, 19] | Chamomile plant response rating [10, 14] | Plant response rating (scale of 0 to 100), Field Poppy ([12]; Preemergence, 31 g ai/ha)
80: Plant response rating, Buckwheat, Wild [5, 19] | Russian Thistle plant response rating [6, 14] | Plant response rating, Russian Thistle [6, 20] | Radish, Wild plant response rating [7, 14] | Plant response rating, Canarygrass [9, 18]
0: Plant response rating (scale of 0 to 100), Bromegrass, Downy ([1]; Preemergence, 31 g ai/ha) | Plant response rating (scale of 0 to 100), Bluegrass ([2]; Preemergence, 31 g ai/ha) | Plant response rating (scale of 0 to 100), Buckwheat, Wild ([5]; Preemergence, 31 g ai/ha) | Plant response rating (scale of 0 to 100), Russian Thistle ([6]; Preemergence, 31 g ai/ha) | Plant response rating, Russian Thistle [6, 17] | Wheat, Spring plant response rating [13, 14] | Plant response rating (scale of 0 to 100), Wheat, Spring ([13]; Preemergence, 31 g ai/ha) | Plant response rating, Wheat, Spring [13, 17] | Plant response rating, Wheat, Spring [13, 18] | Plant response rating, Wheat, Spring [13, 20]
95: Plant response rating, Field Violet [3, 15] | Plant response rating, Field Violet [3, 19] | Plant response rating, Oilseed Rape [4, 20] | Plant response rating, Oat, Wild [8, 19]
25: Plant response rating, Bluegrass [2, 15] | Plant response rating, Bluegrass [2, 19] | Plant response rating (scale of 0 to 100), Field Violet ([3]; Preemergence, 31 g ai/ha) | Plant response rating, Russian Thistle [6, 18] | Plant response rating (scale of 0 to 100), Radish, Wild ([7]; Preemergence, 31 g ai/ha) | Plant response rating, Wheat, Spring [13, 16]
35: Plant response rating, Bluegrass [2, 16] | Plant response rating, Field Violet [3, 17] | Plant response rating, Russian Thistle [6, 19] | Canarygrass plant response rating [9, 14]
15: Plant response rating, Bromegrass, Downy [1, 17] | Plant response rating, Bromegrass, Downy [1, 18] | Plant response rating, Bluegrass [2, 18] | Plant response rating, Bluegrass [2, 20] | Plant response rating (scale of 0 to 100), Oilseed Rape ([4]; Preemergence, 31 g ai/ha) | Plant response rating (scale of 0 to 100), Canarygrass ([9]; Preemergence, 31 g ai/ha) | Plant response rating, Wheat, Spring [13, 15]
85: Field Violet plant response rating [3, 14] | Plant response rating, Oilseed Rape [4, 18] | Plant response rating, Oat, Wild [8, 18] | Plant response rating, Oat, Wild [8, 20]
45: Plant response rating, Wheat, Spring [13, 19]
5: Plant response rating, Buckwheat, Wild [5, 17]
55: Plant response rating, Bromegrass, Downy [1, 15] | Plant response rating, Bromegrass, Downy [1, 20] | Plant response rating, Canarygrass [9, 17] | Plant response rating, Canarygrass [9, 20] | Plant response rating, Field Poppy [12, 17]
50: Plant response rating, Oilseed Rape [4, 17] | Plant response rating (scale of 0 to 100), Mustard, Wild ([11]; Preemergence, 31 g ai/ha)
